Patent US20080039455A1, “PYRAZOLOPYRIMIDINES AND SALTS THEREOF, PHARMACEUTICAL COMPOSITIONS COMPRISING SAME, METHODS OF PREPARING SAME AND USES OF SAME” (priority 2006, published 2008)

Target: T1, human recombinant ALK1 (GST fused to ALK1 intracellular domain [His142-Gln503]) (Homo sapiens, UniProt P37023)
T1 construct: GST fused to ALK1 intracellular domain [His142-Gln503]; made in house
T1 sequence (P37023 142-503): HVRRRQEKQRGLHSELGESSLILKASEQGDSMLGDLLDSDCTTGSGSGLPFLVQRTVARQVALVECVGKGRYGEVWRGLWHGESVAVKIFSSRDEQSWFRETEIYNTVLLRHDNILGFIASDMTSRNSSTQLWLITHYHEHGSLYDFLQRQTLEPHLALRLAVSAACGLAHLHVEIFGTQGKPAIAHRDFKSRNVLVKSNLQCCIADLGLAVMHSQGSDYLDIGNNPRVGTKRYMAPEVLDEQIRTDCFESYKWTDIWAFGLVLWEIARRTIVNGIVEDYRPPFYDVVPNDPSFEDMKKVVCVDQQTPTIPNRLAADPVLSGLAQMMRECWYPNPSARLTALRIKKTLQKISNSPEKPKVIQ
Test: ALK1-Kinase Flashplate-Assay
Format: biochemical
Settings: 0.5 μM ATP, biotinylated α-casein substrate; read-out: Assay 1 (ALK1-Kinase Flashplate-Assay IC50 class)
Outline: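 Radiometric Flashplate assay at 20 °C: GST-ALK1 intracellular domain (5 ng/well) with 1 μM biotinylated bovine α-casein, 0.5 μM ATP plus [γ-33P]ATP in Tris pH 8.0, 1 mM MnCl2, 1% or 5% DMSO, 60 min. Normalised to no-inhibitor (0%) and 10 mM EDTA (100%); IC50 by 4-parameter fit.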

IC50	Structure (SMILES)
< 1 µM	CS(=O)(=O)Nc1cccc(-c2cnn3ccc(Nc4ccccc4)nc23)c1 [Example 243, N-[3-(5-Phenylamino-pyrazolo[1,5-a]pyrimidin-3-yl)-phenyl]-methanesulfonamide]
1 to 10 µM	O=C(O)c1ccc(-c2cnn3ccc(Nc4ccccc4)nc23)cc1 [Example 248, 4-(5-Phenylamino-pyrazolo[1,5-a]pyrimidin-3-yl)-benzoic acid]
1 to 10 µM	Fc1ccccc1-c1cnn2ccc(NCc3cccnc3)nc12 [Example 408, [3-(2-Fluoro-phenyl)-pyrazolo[1,5-a]pyrimidin-5-yl]-pyridin-3-ylmethyl-amine]
< 1 µM	CS(=O)(=O)Nc1cccc(-c2cnn3ccc(Nc4ccc(N5CCOCC5)cc4)nc23)c1 [Example 447, N-{3-[5-(4-Morpholin-4-yl-phenylamino)-pyrazolo[1,5-a]pyrimidin-3-yl]-phenyl}-methanesulfonamide]
1 to 10 µM	c1ccc2c(-c3cnn4ccc(Nc5ccc(N6CCOCC6)cc5)nc34)cccc2c1 [Example 412, (4-Morpholin-4-yl-phenyl)-(3-naphthalen-1-yl-pyrazolo[1,5-a]pyrimidin-5-yl)-amine]
1 to 10 µM	Nc1ccc(C(=O)Nc2ccc(Nc3ccn4ncc(-c5ccc(F)cc5)c4n3)cc2)cc1 [Example 400, 4-Amino-N-{4-[3-(4-fluoro-phenyl)-pyrazolo[1,5-a]pyrimidin-5-ylamino]-phenyl}-benzamide]
1 to 10 µM	COc1ccc(Nc2ccn3ncc(-c4ccsc4)c3n2)cn1 [Example 464, (6-Methoxy-pyridin-3-yl)-(3-thiophen-3-yl-pyrazolo[1,5-a]pyrimidin-5-yl)-amine]
1 to 10 µM	COc1ccc(-c2cnn3ccc(Nc4cc(OC)c(OC)c(OC)c4)nc23)cc1OC [Example 462, [3-(3,4-Dimethoxy-phenyl)-pyrazolo[1,5-a]pyrimidin-5-yl]-(3,4,5-trimethoxy-phenyl)-amine]
1 to 10 µM	COc1cncc(-c2cnn3ccc(Nc4ccccc4)nc23)c1 [Example 251, [3-(5-Methoxy-pyridin-3-yl)-pyrazolo[1,5-a]pyrimidin-5-yl]-phenyl-amine]
1 to 10 µM	CC(C)c1ccc(Nc2ccn3ncc(-c4cccc(CO)c4)c3n2)cc1 [Example 275, {3-[5-(4-Isopropyl-phenylamino)-pyrazolo[1,5-a]pyrimidin-3-yl]-phenyl}-methanol]
1 to 10 µM	COc1cc(Nc2ccn3ncc(-c4ccc(O)cc4)c3n2)cc(OC)c1OC [Example 463, 4-[5-(3,4,5-Trimethoxy-phenylamino)-pyrazolo[1,5-a]pyrimidin-3-yl]-phenol]
1 to 10 µM	COc1ccc(Nc2ccn3ncc(-c4cccc(N)c4)c3n2)cn1 [Example 337, [3-(3-Amino-phenyl)-pyrazolo[1,5-a]pyrimidin-5-yl]-(6-methoxy-pyridin-3-yl)-amine]
1 to 10 µM	c1ccc(Nc2ccn3ncc(-c4cccnc4)c3n2)cc1 [Example 278, Phenyl-(3-pyridin-3-yl-pyrazolo[1,5-a]pyrimidin-5-yl)-amine]
1 to 10 µM	Cn1cc(-c2cnn3ccc(NC4CCC(O)CC4)nc23)cn1 (stereo not shown) [Example 221, 4-[3-(1-Methyl-1H-pyrazol-4-yl)-pyrazolo[1,5-a]pyrimidin-5-ylamino]-cyclohexanol]
1 to 10 µM	COc1cc(-c2cnn3ccc(Nc4ccc(F)c(Cl)c4)nc23)cc(OC)c1OC [Example 259, (3-Chloro-4-fluoro-phenyl)-[3-(3,4,5-trimethoxy-phenyl)-pyrazolo[1,5-a]pyrimidin-5-yl]-amine]
1 to 10 µM	Cn1cc(-c2cnn3ccc(Nc4ccc(N5CCOCC5)cc4)nc23)cn1 [Example 235, [3-(1-Methyl-1H-pyrazol-4-yl)-pyrazolo[1,5-a]pyrimidin-5-yl]-(4-morpholin-4-yl-phenyl)-amine]
1 to 10 µM	Fc1cccc(-c2cnn3ccc(NCc4cccnc4)nc23)c1 [Example 405, [3-(3-Fluoro-phenyl)-pyrazolo[1,5-a]pyrimidin-5-yl]-pyridin-3-ylmethyl-amine]

Second part, the compound before the results:

Structure (SMILES)	IC50
c1cc(CNc2ccn3ncc(-c4cn[nH]c4)c3n2)ccn1 [Example 218, [3-(1H-Pyrazol-4-yl)-pyrazolo[1,5-a]pyrimidin-5-yl]-pyridin-4-ylmethyl-amine]	1 to 10 µM
COc1cc(-c2cnn3ccc(Nc4ccc(C)c(NS(C)(=O)=O)c4)nc23)cc(OC)c1OC [Example 105, N-{2-Methyl-5-[3-(3,4,5-trimethoxy-phenyl)-pyrazolo[1,5-a]pyrimidin-5-ylamino]-phenyl}-methanesulfonamide]	< 1 µM
COc1cc(-c2cnn3ccc(NCCO)nc23)cc(OC)c1OC [Example 120, 2-[3-(3,4,5-Trimethoxy-phenyl)-pyrazolo[1,5-a]pyrimidin-5-ylamino]-ethanol]	< 1 µM
OCCNc1ccn2ncc(-c3ccc(O)cc3)c2n1 [Example 74, 4-[5-(2-Hydroxy-ethylamino)-pyrazolo[1,5-a]pyrimidin-3-yl]-phenol]	1 to 10 µM
COc1cc(Nc2ccn3ncc(-c4cnn(C)c4)c3n2)cc(OC)c1OC [Example 182, [3-(1-Methyl-1H-pyrazol-4-yl)-pyrazolo[1,5-a]pyrimidin-5-yl]-(3,4,5-trimethoxy-phenyl)-amine]	1 to 10 µM
Cc1csc(-c2cnn3ccc(NCc4cccnc4)nc23)c1 [Example 172, [3-(4-Methyl-thiophen-2-yl)-pyrazolo[1,5-a]pyrimidin-5-yl]-pyridin-3-ylmethyl-amine]	1 to 10 µM
CC(=O)c1cccc(-c2cnn3ccc(NCc4ccncc4)nc23)c1 [Example 216, 1-(3-{5-[(Pyridin-4-ylmethyl)-amino]-pyrazolo[1,5-a]pyrimidin-3-yl}-phenyl)-ethanone]	1 to 10 µM
NC(=O)c1cccc(-c2cnn3ccc(Nc4ccc(Oc5ccccc5)cc4)nc23)c1 [Example 38, 3-[5-(4-Phenoxy-phenylamino)-pyrazolo[1,5-a]pyrimidin-3-yl]-benzamide]	1 to 10 µM
COc1cc(-c2cnn3ccc(NCCO)nc23)ccc1O [Example 165, 4-[5-(2-Hydroxy-ethylamino)-pyrazolo[1,5-a]pyrimidin-3-yl]-2-methoxy-phenol]	< 1 µM
FC(F)(F)Oc1cccc(-c2cnn3ccc(NCc4ccncc4)nc23)c1 [Example 113, Pyridin-4-ylmethyl-[3-(3-trifluoromethoxy-phenyl)-pyrazolo[1,5-a]pyrimidin-5-yl]-amine]	< 1 µM
COc1ccc(-c2cnn3ccc(NCc4ccncc4)nc23)cc1OC [Example 65, [3-(3,4-Dimethoxy-phenyl)-pyrazolo[1,5-a]pyrimidin-5-yl]-pyridin-4-ylmethyl-amine]	< 1 µM
COc1ccc(Nc2ccn3ncc(-c4ccc(O)cc4)c3n2)cn1 [Example 13, 4-[5-(6-Methoxy-pyridin-3-ylamino)-pyrazolo[1,5-a]pyrimidin-3-yl]-phenol]	1 to 10 µM
COc1cc(Nc2ccn3ncc(-c4cccc(C(=O)NCCO)c4)c3n2)cc(OC)c1OC [Example 79, N-(2-Hydroxy-ethyl)-3-[5-(3,4,5-trimethoxy-phenylamino)-pyrazolo[1,5-a]pyrimidin-3-yl]-benzamide]	1 to 10 µM
OC1CCC(Nc2ccn3ncc(-c4cccnc4)c3n2)CC1 (stereo not shown) [Example 67, 4-(3-Pyridin-3-yl-pyrazolo[1,5-a]pyrimidin-5-ylamino)-cyclohexanol]	1 to 10 µM
Nc1ccc(C(=O)Nc2ccc(Nc3ccn4ncc(-c5cnn(Cc6ccccc6)c5)c4n3)cc2)cc1 [Example 204, 4-Amino-N-{4-[3-(1-benzyl-1H-pyrazol-4-yl)-pyrazolo[1,5-a]pyrimidin-5-ylamino]-phenyl}-benzamide]	1 to 10 µM
COc1cncc(-c2cnn3ccc(NCCO)nc23)c1 [Example 123, 2-[3-(5-Methoxy-pyridin-3-yl)-pyrazolo[1,5-a]pyrimidin-5-ylamino]-ethanol]	< 1 µM
O=C(NCCO)c1cccc(-c2cnn3ccc(Nc4ccc(N5CCOCC5)cc4)nc23)c1 [Example 130, N-(2-Hydroxy-ethyl)-3-[5-(4-morpholin-4-yl-phenylamino)-pyrazolo[1,5-a]pyrimidin-3-yl]-benzamide]	1 to 10 µM
CC(=O)Nc1cccc(-c2cnn3ccc(Nc4ccc(O)cc4)nc23)c1 [Example 50, N-{3-[5-(4-Hydroxy-phenylamino)-pyrazolo[1,5-a]pyrimidin-3-yl]-phenyl}-acetamide]	< 1 µM
O=C(O)CCc1ccc(-c2cnn3ccc(Nc4ccc(O)cc4)nc23)cc1 [Example 83, 3-{4-[5-(4-Hydroxy-phenylamino)-pyrazolo[1,5-a]pyrimidin-3-yl]-phenyl}-propionic acid]	1 to 10 µM
c1cc(CNc2ccn3ncc(-c4ccsc4)c3n2)ccn1 [Example 63, Pyridin-4-ylmethyl-(3-thiophen-3-yl-pyrazolo[1,5-a]pyrimidin-5-yl)-amine]	< 1 µM
COc1ccc(-c2cnn3ccc(NCCO)nc23)cn1 [Example 164, 2-[3-(6-Methoxy-pyridin-3-yl)-pyrazolo[1,5-a]pyrimidin-5-ylamino]-ethanol]	1 to 10 µM
N#Cc1ccc(-c2cnn3ccc(Nc4ccc(O)cc4)nc23)cc1 [Example 86, 4-[5-(4-Hydroxy-phenylamino)-pyrazolo[1,5-a]pyrimidin-3-yl]-benzonitrile]	1 to 10 µM
Oc1cccc(-c2cnn3ccc(NCc4cccnc4)nc23)c1 [Example 168, 3-{5-[(Pyridin-3-ylmethyl)-amino]-pyrazolo[1,5-a]pyrimidin-3-yl}-phenol]	< 1 µM
